The target in assay [1] is Recombinant ROCK2 (amino acids 1-552) (Homo sapiens (Human), UniProt O75116). The assay can be described thus: Z′-Lyte kinase assay, ROCK2. It counts as biochemical. To be noted: for inhibition at 1 µM: 1 μM compound; for inhibition at 1 µM / inhibition at 0.5 µM: read-out: ROCK2 % inh. @ [conc]; for inhibition at 0.5 µM: 0.5 μM compound. As to the method:
Determination of Compound's ROCK Inhibitory Activity In Vitro (Z'Lyte Assay).
Recombinant ROCK1 (amino acids 1-535) and ROCK2 (amino acids 1-552) proteins were purchased from ThermoFisher Scientific. Compound's activities were measured by Z′-lyte kinase kit (ThermoFisher Scientific) and IC50 was calculated
(§1) In vitro activities for the compounds were measured with Z′-lyte kinase kit (ThermoFisher Scientific). The percent inhibition rate was calculated by normalizing the kinase activity value obtained with 1 μM compound treatment against DMSO control value and then applied to the formula, [1-(compound/DMSO)]×100%. IC50s were calculated using the nonlinear regression curve fit function of the GraphPad Prism software with kinase activities data measured with 9 points 2-fold serial dilution of compounds treatment. In cell pMLC IC50s were calculated with data obtained from A7R5 cell experiments. A7R5 cells were treated with 9 points 2-fold serial dilution of compounds and ppMlc (T18/S19) levels were determined to calculate cellular IC50 values of the compounds using the nonlinear regression curve fit function of the GraphPad Prism software. NIH3T3 cells stably expressing ACTA2-promoter-driven-luciferase were applied to measure ROCK compounds functional IC50s in cells. Cells were plated in 96 well plates to confluence and treated with 9 points serial dilution of compounds in combination with TGFβ1 for 24 hr. Luciferase activities were measured and compound's IC50s were calculated using the nonlinear regression curve fit function of the GraphPad Prism software.

Assay [2] concerns ppMlc (T18/S19) levels in A7R5 cells. The assay can be described thus: A7R5 in-cell ELISA (pMLC). The assay is classed as cell-based, Rat. To be noted: for inhibition at 10 µM / IC50: Rattus norvegicus, A7R5, A7R5 cells; for inhibition at 10 µM: read-out: pMLC % inh A7R5 @ [conc]; for IC50: ppMlc (T18/S19). Here is the method: Determination of Compounds ROCK Inhibitory Activity in A7R5Cells.
Rat aortic smooth muscle cell line, A7R5, cells were seeded with density of 5,000 cells/well in a 96-well plates for 24 hours and subsequently treated for 90 min with testing compounds. Cells were then fixed and processed according to the In-Cell ELISA Colorimetric Detection Kit manual (Thermo Scientific).
An A7R5 in-cell Elisa assay was performed. A7R5 cells were treated with 9 points 2 fold serial dilution of compounds and ppMlc (T18/S19) levels were determined to calculate cellular IC50 values of the compounds. Compounds of the invention gave in cell IC50s under 100 nM.
as §1

Molecules are shown by their SMILES. Read-outs that look alike come from different tables or passages of the source. A value given as a limit tells only on which side of the number the result lay.

Chain of Recombinant ROCK2 (amino acids 1-552) (O75116 1-552): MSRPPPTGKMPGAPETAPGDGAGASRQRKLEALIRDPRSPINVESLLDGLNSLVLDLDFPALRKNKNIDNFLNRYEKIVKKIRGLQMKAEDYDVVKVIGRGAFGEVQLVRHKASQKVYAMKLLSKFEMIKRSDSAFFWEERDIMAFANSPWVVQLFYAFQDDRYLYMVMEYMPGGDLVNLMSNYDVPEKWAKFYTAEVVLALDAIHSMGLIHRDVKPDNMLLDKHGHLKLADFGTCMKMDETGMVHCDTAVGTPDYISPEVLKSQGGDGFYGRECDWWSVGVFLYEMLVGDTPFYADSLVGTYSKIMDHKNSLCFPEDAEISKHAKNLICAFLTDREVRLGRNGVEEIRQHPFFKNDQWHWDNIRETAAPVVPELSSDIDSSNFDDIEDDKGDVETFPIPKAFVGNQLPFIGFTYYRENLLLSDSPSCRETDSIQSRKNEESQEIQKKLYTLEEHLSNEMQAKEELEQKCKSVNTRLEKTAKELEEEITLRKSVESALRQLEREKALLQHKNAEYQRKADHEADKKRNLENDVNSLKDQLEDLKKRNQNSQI

Take `Clc1cnc(N2CCCNCC2)nc1Nc1ccc2[nH]ncc2c1` [Example 4, N-(5-chloro-2-(1,4-diazepan-1-yl)pyrimidin-4-yl)-1H-indazol-5-amine]: the 50% inhibitory concentration (IC50) (as a rule, the concentration that inhibits the measured activity by half) in assay [1] (9 points 2-fold serial dilution) came to 139 nM; in assay [2] it was 312 nM. The inhibition at 10 µM in assay [2] (10 μM compound) was determined as 95.3%. For the molecule `c1ccc2c(Nc3ccc4[nH]ncc4c3)nc(N3CCCNCC3)nc2c1` [Example 6, 2-(1,4-diazepan-1-yl)-N-(1H-indazol-5-yl)quinazolin-4-amine], the inhibition at 1 µM in assay [1] stood at 85.7%. For the same molecule, the inhibition at 10 µM in assay [2] (10 μM compound) was 94.6%. The IC50 in assay [2] stood at 1800 nM.

In the case of `Cc1nc(N2CCCNCC2)nc(Nc2ccc3[nH]ncc3c2)c1C` [Example 8, N-(2-(1,4-diazepan-1-yl)-5,6-dimethylpyrimidin-4-yl)-1H-indazol-5-amine], in assay [1], the inhibition at 1 µM came out at 83.3%. For the same molecule, the inhibition at 10 µM in assay [2] (10 μM compound) turned out to be 89%. In assay [2], the 50% inhibitory concentration (IC50) was found to be 1600 nM.

On to `c1cc(Nc2ccc3[nH]ncc3c2)nc(N2CCOCC2)n1` [Example 33, N-(2-morpholinopyrimidin-4-yl)-1H-indazol-5-amine], for which the IC50 in assay [1] was above 10000 nM.

Regarding `Fc1cnc(N2CC(C3CCNCC3)c3ccccc32)nc1Nc1ccc2[nH]ncc2c1` (centres unmarked) [Example 175, N-(5-fluoro-2-(3-(piperidin-4-yl)indolin-1-yl)pyrimidin-4-yl)-1H-indazol-5-amine], the inhibition at 1 µM in assay [1] was 10.5%. As for `OC1CC2CCC(C1)N2c1nccc(Nc2ccc3[nH]ncc3c2)n1` (centres unmarked) [Example 223, 8-(4-((1H-indazol-5-yl)amino)pyrimidin-2-yl)-8-azabicyclo[3.2.1]octan-3-ol], the IC50 in assay [1] worked out at 15.8 nM. On to `CC1(C)CN(c2nccc(Nc3ccc(-c4cn[nH]c4)cc3)n2)CCN1` [Example 255, N-(4-(1H-pyrazol-4-yl)phenyl)-2-(3,3-dimethylpiperazin-1-yl)pyrimidin-4-amine], for which the inhibition at 10 µM in assay [2] (10 μM compound) was determined as 72%. In assay [2], the half-inhibitory concentration (IC50) is 1360 nM. Regarding `CC1CN(c2nccc(Nc3ccc(-c4cn[nH]c4)cc3)n2)CC(C)N1` (centres unmarked) [Example 256, N-(4-(1H-pyrazol-4-yl)phenyl)-2-(3,5-dimethylpiperazin-1-yl)pyrimidin-4-amine], the inhibition at 10 µM in assay [2] (10 μM compound) turned out to be 84.5%. The IC50 in assay [2] was found to be 1560 nM. For `c1cc(Nc2ccc(-c3cn[nH]c3)cc2)nc(N2C3CCC2CNC3)n1` [Example 257, N-(4-(1H-pyrazol-4-yl)phenyl)-2-(3,8-diazabicyclo[3.2.1]octan-8-yl)pyrimidin-4-amine], in that order: 85.6% and 2070 nM. For `c1cc(Nc2ccc(-c3cn[nH]c3)cc2)nc(N2CC3CCC(C2)N3)n1` [Example 258, N-(4-(1H-pyrazol-4-yl)phenyl)-2-(3,8-diazabicyclo[3.2.1]octan-3-yl)pyrimidin-4-amine], the inhibition at 10 µM in assay [2] (10 μM compound) came out at 26%. For the molecule `c1ccc(C2CN(c3nccc(Nc4ccc(-c5cn[nH]c5)cc4)n3)CCN2)cc1` (centres unmarked) [Example 260, N-(4-(1H-pyrazol-4-yl)phenyl)-2-(3-phenylpiperazin-1-yl)pyrimidin-4-amine], the inhibition at 10 µM in assay [2] (10 μM compound) is 18%.

On to `c1cc(-c2cn[nH]c2)ccc1Nc1nc(N2CCCNCC2)nc2c1COC2` [Example 262, N-(4-(1H-pyrazol-4-yl)phenyl)-2-(1,4-diazepan-1-yl)-5,7-dihydrofuro[3,4-d]pyrimidin-4-amine], for which, in assay [2] (10 μM compound), the inhibition at 10 µM worked out at 87%. The IC50 in assay [2] came out at 3650 nM.

On to `Cc1nc(N2CCCNCC2)nc(Nc2ccc(-c3cn[nH]c3)cc2)c1C` [Example 266, N-(4-(1H-pyrazol-4-yl)phenyl)-2-(1,4-diazepan-1-yl)-5,6-dimethylpyrimidin-4-amine], for which the inhibition at 10 µM in assay [2] (10 μM compound) was 74%. The 50% inhibitory concentration (IC50) in assay [2] came out at 3150 nM.

Turning to `c1ccc2c(Nc3ccc(-c4cn[nH]c4)cc3)nc(N3CCCNCC3)nc2c1` [Example 268, N-(4-(1H-pyrazol-4-yl)phenyl)-2-(1,4-diazepan-1-yl)quinazolin-4-amine], the inhibition at 10 µM in assay [2] (10 μM compound) worked out at 63.7%. Also, the 50% inhibitory concentration (IC50) in assay [2] was determined as 3720 nM. Consider `c1cc(-c2ccc(Nc3nc(N4C5CNCC4C5)nc4c3CNC4)cc2)ccn1` [Example 292, 2-(3,6-diazabicyclo[3.1.1]heptan-6-yl)-N-(4-(pyridin-4-yl)phenyl)-6,7-dihydro-5H-pyrrolo[3,4-d]pyrimidin-4-amine], for which the inhibition at 0.5 µM in assay [1] was found to be 10%.

For the molecule `Cc1c(Nc2nc(N3C4CNCC3C4)ncc2Cl)ccc2[nH]ncc12` [Example 293, N-(2-(3,6-diazabicyclo[3.1.1]heptan-6-yl)-5-chloropyrimidin-4-yl)-4-methyl-1H-indazol-5-amine], in assay [1], the inhibition at 0.5 µM is 1%. On the same count and under the same terms, with `Cc1c(Nc2nc(N3C4CCC3CNC4)ncc2Cl)ccc2[nH]ncc12` [Example 294, N-(2-(3,8-diazabicyclo[3.2.1]octan-8-yl)-5-chloropyrimidin-4-yl)-4-methyl-1H-indazol-5-amine] the figure was 0%. As for `c1cc(-c2ccc(Nc3nc(N4C5CNCC4C5)nc4c3COCC4)cc2)ccn1` [Example 311, 2-(3,6-diazabicyclo[3.1.1]heptan-6-yl)-N-(4-(pyridin-4-yl)phenyl)-7,8-dihydro-5H-pyrano[4,3-d]pyrimidin-4-amine], the IC50 in assay [1] is above 1000 nM. Regarding `c1cc(-c2ccc(Nc3nc(N4C5CNCC4C5)nc4c3COC4)cc2)ccn1` [Example 312, 2-(3,6-diazabicyclo[3.1.1]heptan-6-yl)-N-(4-(pyridin-4-yl)phenyl)-5,7-dihydrofuro[3,4-d]pyrimidin-4-amine], in assay [1], the 50% inhibitory concentration (IC50) was above 1000 nM. `Cc1cc2[nH]ncc2cc1Nc1nc(N2C3CCC2CNC3)ncc1Cl` [Example 318, N-(2-(3,8-diazabicyclo[3.2.1]octan-8-yl)-5-chloropyrimidin-4-yl)-6-methyl-1H-indazol-5-amine]: the inhibition at 0.5 µM in assay [1] came to 50%. Regarding `Clc1cnc(N2CC3CNCC(C2)O3)nc1Nc1ccc2[nH]ncc2c1` [Example 325, N-(2-((1,5)-9-oxa-3,7-diazabicyclo[3.3.1]nonan-3-yl)-5-chloropyrimidin-4-yl)-1H-indazol-5-amine], in assay [1], the inhibition at 0.5 µM is 25%.

On to `c1ccc2c(Nc3ccc4[nH]ncc4c3)nc(N3C4CCC3CNC4)nc2c1` [Example 330, 2-(3,8-diazabicyclo[3.2.1]octan-8-yl)-N-(1H-indazol-5-yl)quinazolin-4-amine], for which the 50% inhibitory concentration (IC50) in assay [1] worked out at 11 nM.

Regarding `CN(C)C1CC2CC1CN2c1ncc(F)c(Nc2ccc3[nH]ncc3c2)n1` (centres unmarked) [Example 335, N-(2-(5-(dimethylamino)-2-azabicyclo[2.2.1]heptan-2-yl)-5-fluoropyrimidin-4-yl)-1H-indazol-5-amine], the concentration for half-maximal inhibition (IC50) in assay [1] is above 1000 nM.

As to `CN(C)C1CC2CCC(C1)N2c1nccc(Nc2ccc3[nH]ncc3c2)n1` (centres unmarked) [Example 337, N-(2-(3-(dimethylamino)-8-azabicyclo[3.2.1]octan-8-yl)pyrimidin-4-yl)-1H-indazol-5-amine], the IC50 in assay [1] is above 1000 nM. Take `c1cc(Nc2ccnc(N3CCNCC3)n2)cc(-c2ccncc2)c1` [Example 345, 2-(piperazin-1-yl)-N-(3-(pyridin-4-yl)phenyl)pyrimidin-4-amine]: the inhibition at 10 µM in assay [2] (10 μM compound) amounted to 23.7%.

Take `O=c1ccc(-c2ccc(Nc3ccnc(N4CCNCC4)n3)cc2)c[nH]1` [Example 349, 5-(4-((2-(piperazin-1-yl)pyrimidin-4-yl)amino)phenyl)pyridin-2(1H)-one]: the inhibition at 10 µM in assay [2] (10 μM compound) came to 4.21%. With `Nc1nnc(-c2ccc(Nc3ccnc(N4CCNCC4)n3)cc2)o1` [Example 362, 5-(4-((2-(piperazin-1-yl)pyrimidin-4-yl)amino)phenyl)-1,3,4-oxadiazol-2-amine], the inhibition at 10 µM in assay [2] (10 μM compound) was found to be 5.14%. On to `c1cc(Nc2ccc(-c3cncs3)cc2)nc(N2CCNCC2)n1` [Example 363], for which, in assay [2] (A7R5 cells, 10 μM compound), the “pMLC % inh A7R5 @ [conc]” value amounted to 10.22%.

In the case of `O=c1[nH]c2ccc(Nc3ccnc(N4CCNCC4)n3)cc2[nH]1` [Example 364, 5-((2-(piperazin-1-yl)pyrimidin-4-yl)amino)-1,3-dihydro-2H-benzo[d]imidazol-2-one], in assay [2] (10 μM compound), the inhibition at 10 µM worked out at 6.18%. Take `c1cc(Nc2ccc(-c3ccnc4[nH]cnc34)cc2)nc(N2CCNCC2)n1` [Example 366, N-(4-(3H-imidazo[4,5-b]pyridin-7-yl)phenyl)-2-(piperazin-1-yl)pyrimidin-4-amine]: the inhibition at 10 µM in assay [2] (10 μM compound) is 4.95%. Turning to `c1cc(Nc2ccc(-c3nnco3)cc2)nc(N2CCNCC2)n1` [Example 367, N-(4-(1,3,4-oxadiazol-2-yl)phenyl)-2-(piperazin-1-yl)pyrimidin-4-amine], the inhibition at 10 µM in assay [2] (10 μM compound) turned out to be 7.2%.

With `c1cc(Nc2cnc3[nH]ccc3c2)nc(N2CCNCC2)n1` [Example 369, N-(2-(piperazin-1-yl)pyrimidin-4-yl)-1H-pyrrolo[2,3-b]pyridin-5-amine], the inhibition at 10 µM in assay [2] (10 μM compound) stood at 0.9%.

The values above are taken from US11613531B2, “Inhibitors of RHO associated coiled-coil containing protein kinase” (Kadmon Corporation, LLC, priority 2017, dated 2023).
